The results in this text go back to ChEMBL document CHEMBL5335822, “Identification of benzothiazole derived monosaccharides as potent, selective, and orally bioavailable inhibitors of human and mouse galectin-3; a rare example of using a S···O binding interaction for drug design” (Bioorg Med Chem, 2024).

Data set [1] can be described thus: Permeability of the compound at pH 5.5 incubated for 4 hrs by PAMPA based SpectraMax UV-plate reader analysis. In kind it is ADME. The note with it: read-out: permeability. A general note: The PAMPA barrier holds no transporters, so it reflects passive diffusion.
A short description of data set [2]: AUC in mouse at 10 mg/kg,po administration. In kind it is ADME, organism-based. Also on record: dose 10 mg/kg, route po. The note with it: in vivo.
Data set [3] in a line: Volume of distribution at steady state in mouse at 10 mg/kg,po administration. The note with it: in vivo. The class given is ADME, organism-based.
The target in the next data set is Galectin-1 (Homo sapiens, UniProt P09382). The data set can be described thus: Inhibition of human Galectin-1.
The nature of data set [4]: Clearance in mouse at 10 mg/kg,po administration. In kind it is ADME, organism-based. The note with it: in vivo.
Another data set has as its target Galectin-9 (Homo sapiens, UniProt O00182). The data set can be described thus: Inhibition of human Galectin-9.
Data set [5] is described as follows: Cmax in mouse at 10 mg/kg,po administration. The class given is ADME, organism-based. On the set-up: dose 10 mg/kg, route po. To be noted: in vivo.
Data set [6] has as its target Galectin-3 (Mus musculus, UniProt P16110). The data set can be described thus: Inhibition of mouse Galectin-3.
Data set [7] in a line: Permeability of the compound at pH 7.4 incubated for 4 hrs by PAMPA based SpectraMax UV-plate reader analysis. In kind it is ADME. To be noted: read-out: permeability.
The nature of data set [8]: Oral bioavailability in mouse at 10 mg/kg administration. In kind it is ADME, organism-based. The note with it: in vivo.
Data set [9] deals with Galectin-3 (Homo sapiens, UniProt P17931). The data set can be described thus: Inhibition of human Galectin-3.
For data set [10], the species on record is Homo sapiens. In words: Selectivity ratio of IC50 for inhibition of human Galectin-9 to IC50 for inhibition of human Galectin-3.
The species named for data set [11] is Homo sapiens. In words: Selectivity ratio of IC50 for inhibition of human Galectin-1 to IC50 for inhibition of human Galectin-3.

Where only a bound is given, the exact number is not on record here.

Sequence of Galectin-1 (P09382 whole entry): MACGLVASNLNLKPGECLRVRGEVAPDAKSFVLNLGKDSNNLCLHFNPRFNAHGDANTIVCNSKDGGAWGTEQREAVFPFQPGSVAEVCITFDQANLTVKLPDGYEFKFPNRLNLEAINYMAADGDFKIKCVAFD
Sequence of Galectin-3 (Mus musculus, UniProt P16110) (P16110 whole entry): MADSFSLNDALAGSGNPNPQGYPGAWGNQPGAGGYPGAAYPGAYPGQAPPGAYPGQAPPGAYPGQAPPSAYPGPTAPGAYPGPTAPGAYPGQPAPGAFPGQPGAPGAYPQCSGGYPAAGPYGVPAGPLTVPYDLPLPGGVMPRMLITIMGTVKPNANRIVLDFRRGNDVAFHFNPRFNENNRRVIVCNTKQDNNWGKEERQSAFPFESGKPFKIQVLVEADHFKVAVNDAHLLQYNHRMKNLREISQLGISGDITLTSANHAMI
Sequence of Galectin-3 (Homo sapiens, UniProt P17931) (P17931 whole entry): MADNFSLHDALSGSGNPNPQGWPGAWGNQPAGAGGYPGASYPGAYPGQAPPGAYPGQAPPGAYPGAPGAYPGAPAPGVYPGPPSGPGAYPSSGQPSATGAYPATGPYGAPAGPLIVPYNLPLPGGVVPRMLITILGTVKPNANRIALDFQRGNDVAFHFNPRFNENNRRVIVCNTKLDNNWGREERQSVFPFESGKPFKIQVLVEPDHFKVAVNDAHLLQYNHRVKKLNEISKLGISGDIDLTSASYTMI
Sequence of Galectin-9 (O00182 whole entry): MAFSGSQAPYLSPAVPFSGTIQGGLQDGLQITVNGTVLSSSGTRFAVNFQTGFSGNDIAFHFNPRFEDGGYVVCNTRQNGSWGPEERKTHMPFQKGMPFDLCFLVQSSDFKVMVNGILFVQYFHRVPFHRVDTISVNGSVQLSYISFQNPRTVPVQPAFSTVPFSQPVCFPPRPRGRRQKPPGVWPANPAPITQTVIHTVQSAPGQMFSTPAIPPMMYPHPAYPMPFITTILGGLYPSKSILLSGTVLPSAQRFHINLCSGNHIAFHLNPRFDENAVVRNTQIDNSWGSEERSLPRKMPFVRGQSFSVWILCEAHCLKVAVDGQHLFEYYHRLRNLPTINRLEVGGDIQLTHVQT

One may read the AUC as the area under the concentration-time curve, a measure of exposure. What is called IC50 is the point on the concentration scale where inhibition reaches its midpoint. Broadly, the CL/F is the apparent clearance, not corrected for the fraction that reaches the circulation. What is called Cmax is the highest concentration seen after dosing. By bioavailability is commonly meant dose-corrected exposure relative to a reference, in per cent. A high value points to good availability. Regarding `CO[C@H]1C(C(=O)N(C)c2ccc3ncsc3c2)O[C@H](CO)[C@H](O)[C@@H]1n1cc(-c2ccc(Cl)c(F)c2F)nn1` (single isomer, unassigned), the Papp at 4 h in [1] was 29.4 ×10⁻⁶ cm/s; in [7], 29.5 ×10⁻⁶ cm/s. Further, the AUC in data set [2] amounted to 13 µM·h. Further, the Vdss in data set [3] turned out to be 2.1 L/kg. The IC50 against Galectin-1 is 1580 nM; on Galectin-9, 2750 nM; on Galectin-3 [6], 169 nM. This compound also had a CL/F in data set [4] of 12 mL/min/kg. In addition, the Cmax in data set [5] amounted to 3100 nM. In data set [8], the bioavailability was 52%.

On to `Cc1nc2cc(C)c(-n3ncnc3[C@@H]3O[C@H](CO)[C@H](O)[C@H](n4cc(-c5cc(F)c(F)c(F)c5)nn4)[C@H]3O)cc2s1`, for which the figures for the IC50 on Galectin-3 [9] and against Galectin-3 [6] were 52 nM and 1200 nM, respectively.

`Cc1nc([C@@H]2O[C@H](CO)[C@H](O)[C@H](n3cc(-c4ccc(Br)c(F)c4F)nn3)[C@H]2O)n(-c2ccc3ncsc3c2)n1`: the results for the Papp at 4 h in data set [1] and in data set [7] were 30.7 ×10⁻⁶ cm/s and 30.1 ×10⁻⁶ cm/s, respectively. Also, the AUC in [2] was determined as 3 µM·h. Besides, the IC50 against Galectin-1 is 2600 nM; against Galectin-3 [9], 7.2 nM; at Galectin-9, 2110 nM; on Galectin-3 [6], 45 nM. Further, the Ratio IC50 in the data set filed under Homo sapiens [10] amounted to 293; in the data set listed under Homo sapiens [11], 361. Also, in data set [5], the Cmax worked out at 600 nM.

Turning to `OC[C@H]1O[C@@H](c2ncnn2-c2ccc3ncsc3c2)[C@H](O)[C@@H](n2cc(-c3cc(F)c(F)c(F)c3)nn2)[C@H]1O`, the IC50 against Galectin-3 [9] worked out at 37 nM; on Galectin-3 [6], 939 nM.

On to `CO[C@@H]1[C@@H](n2cc(-c3cc(F)c(Br)c(F)c3)nn2)[C@@H](O)[C@@H](CO)O[C@H]1C(=O)N(C)c1ccc2ncsc2c1`, for which the figures for the Papp at 4 h in data set [1] and in data set [7] were 57.8 ×10⁻⁶ cm/s and 53.8 ×10⁻⁶ cm/s, respectively. For the same compound, the IC50 at Galectin-3 [6] was 206 nM.

On to `CO[C@@H]1[C@@H](n2cc(-c3ccc(Br)c(F)c3F)nn2)[C@@H](O)[C@@H](CO)O[C@H]1c1nc(C)nn1-c1ccc2ncsc2c1`, for which, in data set [1], the Papp at 4 h is 104 ×10⁻⁶ cm/s. In [2], this compound registered an AUC of 8.7 µM·h. Also, the IC50 against Galectin-1 came out at 3520 nM; against Galectin-9, 2420 nM; on Galectin-3 [6] it was 61 nM. The Ratio IC50 in the data set filed under Homo sapiens [10] came out at 186; in the data set filed under Homo sapiens [11] it was 271. Also, the Cmax in [5] worked out at 1800 nM.

Consider `CO[C@@H]1[C@@H](n2cc(-c3cc(F)c(F)c(F)c3)nn2)[C@@H](O)[C@@H](CO)O[C@H]1C(=O)N(C)c1ccc2ncsc2c1`, for which the values for the Papp at 4 h in data set [1] and in data set [7] were 14.4 ×10⁻⁶ cm/s and 17.2 ×10⁻⁶ cm/s, respectively. For the same compound, the IC50 at Galectin-1 is 3250 nM; on Galectin-9, 9970 nM; at Galectin-3 [6], 504 nM.

With `Cc1nc([C@@H]2O[C@H](CO)[C@H](O)[C@H](n3cc(-c4cc(F)c(Br)c(F)c4)nn3)[C@H]2O)n(-c2ccc3ncsc3c2)n1`, the Papp at 4 h in data set [1] amounted to 5.2 ×10⁻⁶ cm/s; in [7], 4.8 ×10⁻⁶ cm/s. The same compound returned an IC50 against Galectin-3 [6] of 144 nM.

As to `Cc1nc2cc(Cl)c(-n3ncnc3[C@@H]3O[C@H](CO)[C@H](O)[C@H](n4cc(-c5cc(F)c(F)c(F)c5)nn4)[C@H]3O)cc2s1`, the IC50 against Galectin-3 [9] came to 71 nM; against Galectin-3 [6], 1310 nM.

On to `CO[C@@H]1[C@@H](n2cc(-c3ccc(Cl)c(F)c3F)nn2)[C@@H](O)[C@@H](CO)O[C@H]1c1nc(C)nn1-c1ccc2ncsc2c1`, for which the Papp at 4 h was found to be 73.1 ×10⁻⁶ cm/s in [1] and 80.2 ×10⁻⁶ cm/s in [7]. The AUC in data set [2] is 14 µM·h. Moreover, the Vdss in data set [3] is 1.8 L/kg. In addition, the IC50 against Galectin-1 worked out at 2720 nM; at Galectin-3 [9], 11 nM; against Galectin-9, 3530 nM; on Galectin-3 [6], 84 nM. The Ratio IC50 stood at 321 in the data set filed under Homo sapiens [10] and 247 in the data set filed under Homo sapiens [11]. Also, in data set [4], the CL/F amounted to 8 mL/min/kg. Further, in data set [5], the highest level (Cmax) was 4300 nM. In data set [8], this compound showed a bioavailability of 40%.

For the compound `Cc1nc([C@@H]2O[C@H](CO)[C@H](O)[C@H](n3cc(-c4cc(F)c5ccccc5c4)nn3)[C@H]2O)n(-c2ccc3ncsc3c2)n1`, the Papp at 4 h in data set [1] came to 9 ×10⁻⁶ cm/s; in data set [7] it was 13.7 ×10⁻⁶ cm/s. The IC50 against Galectin-3 [9] was 22 nM; at Galectin-3 [6], 179 nM.

The compound `CCN(C(=O)[C@@H]1O[C@H](CO)[C@H](O)[C@H](n2cc(-c3cc(F)c(Cl)c(F)c3)nn2)[C@H]1OC)c1ccc2ncsc2c1` displayed an IC50 on Galectin-3 [6] of 429 nM.

Take `CO[C@@H]1[C@@H](n2cc(-c3cc(F)c(Cl)c(F)c3)nn2)[C@@H](O)[C@@H](CO)O[C@H]1c1nc(C)nn1-c1ccc2ncsc2c1`: the Papp at 4 h in [1] turned out to be 59.1 ×10⁻⁶ cm/s. Also, at Galectin-3 [6], the IC50 came out at 150 nM.

In the case of `Cc1nc([C@@H]2O[C@H](CO)[C@H](O)[C@H](n3cc(-c4ccc(Cl)c(F)c4F)nn3)[C@H]2O)n(-c2ccc3ncsc3c2)n1`, the Papp at 4 h in data set [1] amounted to 24.1 ×10⁻⁶ cm/s; in data set [7] it was 16.3 ×10⁻⁶ cm/s. Further, the IC50 against Galectin-1 amounted to 3830 nM; at Galectin-3 [9], 8.8 nM; against Galectin-9, 3010 nM; against Galectin-3 [6] it was 86 nM. Besides, the values for the Ratio IC50 in the data set filed under Homo sapiens [10] and in the data set listed under Homo sapiens [11] were 342 and 435, respectively.

Regarding `CO[C@@H]1[C@@H](n2cc(-c3cc(F)c(Br)c(F)c3)nn2)[C@@H](O)[C@@H](CO)O[C@H]1c1nc(C)nn1-c1ccc2ncsc2c1`, the IC50 is 30 nM against Galectin-3 [9] and 150 nM against Galectin-3 [6].

Turning to `Cc1nc2ccc(-n3ncnc3[C@@H]3O[C@H](CO)[C@H](O)[C@H](n4cc(-c5cc(F)c(F)c(F)c5)nn4)[C@H]3O)cc2s1`, the IC50 is 63 nM on Galectin-3 [9] and 1220 nM on Galectin-3 [6].

On to `Cc1nc([C@@H]2O[C@H](CO)[C@H](O)[C@H](n3cc(-c4cc(F)c(F)c(F)c4)nn3)[C@H]2O)n(-c2ccc3ncsc3c2)n1`, for which the Papp at 4 h came to 1.5 ×10⁻⁶ cm/s in [1] and 3.9 ×10⁻⁶ cm/s in data set [7]. For the same compound, the half-inhibitory concentration (IC50) against Galectin-3 [9] was 28 nM; against Galectin-3 [6] it was 536 nM.

On to `Cc1nc2ccc(N(C)C(=O)[C@@H]3O[C@H](CO)[C@H](O)[C@H](n4cc(-c5cc(F)c(F)c(F)c5)nn4)[C@H]3O)cc2s1`, for which the Papp at 4 h in data set [1] was determined as 1.9 ×10⁻⁶ cm/s; in data set [7], 0.8 ×10⁻⁶ cm/s. For the same compound, the IC50 against Galectin-3 [6] was determined as 3510 nM.

For the compound `CO[C@@H]1[C@@H](n2cc(-c3ccc(Br)c(F)c3F)nn2)[C@@H](O)[C@@H](CO)O[C@H]1C(=O)N(C)c1ccc2ncsc2c1`, the Papp at 4 h in [1] was 27.9 ×10⁻⁶ cm/s; in [7], 26.9 ×10⁻⁶ cm/s. Also, half-maximal inhibition against Galectin-3 [6] (IC50) required 95 nM.

`CO[C@@H]1[C@@H](n2cc(-c3cc(F)c(Cl)c(F)c3)nn2)[C@@H](O)[C@@H](CO)O[C@H]1C(=O)N(C)c1ccc2ncsc2c1`: the figures for the Papp at 4 h in [1] and in [7] were 16 ×10⁻⁶ cm/s and 16.7 ×10⁻⁶ cm/s, respectively. Moreover, on Galectin-3 [6], the IC50 worked out at 178 nM.

Take `CO[C@@H]1[C@@H](n2cc(-c3cc(F)c(F)c(F)c3)nn2)[C@@H](O)[C@@H](CO)O[C@H]1C(=O)N(C)c1ccc2nc(C)sc2c1`: the Papp at 4 h in [1] amounted to 29.8 ×10⁻⁶ cm/s; in data set [7], 18.6 ×10⁻⁶ cm/s. The IC50 against Galectin-3 [6] was 2510 nM.

`Cc1nc([C@@H]2O[C@H](CO)[C@H](O)[C@H](n3cc(-c4cc(F)c(Cl)c(F)c4)nn3)[C@H]2O)n(-c2ccc3ncsc3c2)n1`: the Papp at 4 h in [1] turned out to be 10.4 ×10⁻⁶ cm/s. Moreover, the IC50 on Galectin-3 [9] was 18 nM; against Galectin-3 [6], 151 nM.

Consider `CO[C@@H]1[C@@H](n2cc(-c3cc(F)c(Cl)c(F)c3)nn2)[C@@H](O)[C@@H](CO)O[C@H]1C(=O)Nc1ccc2ncsc2c1`, for which the figures for the IC50 at Galectin-3 [9] and on Galectin-3 [6] were more than 10000 nM and more than 30000 nM, respectively.
